Patent publication EP1908513A1, “Method for preparing and using chemical collections” (priority 2006, dated 2008)
≈ marks a conversion by molar mass, not a printed value.

Legend:
[1] = decimal logarithm of the molar aqueous solubility; cited from earlier work
[2] = Solubilization in water or 30% PEG-8000/water, freeze-drying and reconstitution; concentration by HPLC (Example 1); settings: for PEG solutions, freeze dried and reconstituted Test 1 / PEG solutions, freeze dried and reconstituted Test 2: 30% PEG-8000, reconstituted with water; for PEG solutions, freeze dried and reconstituted Test 1 / PEG solutions, freeze dried and reconstituted Test 2 / CPEG / Cw: target 200 µM; for CPEG: 30% PEG-8000 / water, 50-fold dilution of 10 mM DMSO stock; for CPEG / Cw: filtered 0.45 µm; for Cw: aqueous solution, 50-fold dilution of 10 mM DMSO solution; for PEG solutions, reconstituted and diluted 1:10 Test 1 / PEG solutions, reconstituted and diluted 1:10 Test 2: diluted 1:10 with water, target 20 µM; for PEG solutions, reconstituted and diluted 1:10 Test 1: 3% PEG-8000, Test 1; for PEG solutions, reconstituted and diluted 1:10 Test 2: 3% PEG-8000, Test 2
Method: Materials and methods. […] The following compounds were obtained from Fluka - Riedel deHaën: phenylacetic acid, p-toluenesulphonamide, carbazol (Vetranal analytical standard), Polyethylene glycol 8000. Stock solutions were prepared in dimethylsulfoxide (Sigma-Aldrich, ACS spectrophotometric grade) at 10 mM concentration by weighing an appropriate amount of each compound and adding the computed DMSO volume with a calibrated variable volume pipet (Eppendorf). A solution of PEG-8000 (30%, w/w) in water in a 50 mL centrifuge tube was prepared by weighing 15.0 g of PEG-8000 and adding water up to 50.0 g.
Solutions were analysed using an Agilent 1100 chromatograph with the following HPLC method: • Column: Waters X-terra 4.6x50 mm, 3.5 µm • Mobile phase A: water/acetonitrile (97/3 by volume) containing 0.1% trifluoroacetic acid • Mobile phase B: acetonitrile containing 0.1% trifluoroacetic acid • Flow = 1 mL/min, injection = 10 µL, detection wavelength 220 nm (8 nm bandwidth) with reference at 400 nm (40 nm bandwidth). • Gradient 1: from 100% A to 60% A in 6 min, down to 40% A in 1 min, followed by 3 min re-equilibration at 100% A. • Gradient 2: from 70% A to 30% A in 6 min, 1 min isocratic elution at 30% A, followed by 3 min re-equilibration at 70% A.
The following solutions were prepared by 50-fold dilution of the DMSO stock solutions: • Target concentration: 200 µM in water • Target concentration: 200 µM in 30% PEG-8000 / water
After equilibration (1 day at room temperature), all solutions were filtered through 0.45 µm cellulose filters (ProFill, 25 mm syringe filters, Alltech). Aliquots were placed in HPLC vials and submitted to analysis. Two 1 mL aliquots of each 30% PEG solution were placed into 14x100 mm pre-weighed test tubes. These tubes were weighed, and placed in liquid nitrogen to freeze the solution, and finally submitted to freeze-drying in a Lio-5P apparatus (5Pascal, Trezzano sul Naviglio, Italy). After one day, the tubes were weighed and water was added with a micropipette in order to match the original solution weight. A fraction of these solutions was diluted 1:10 with water (target concentration: 20 µM).

[3] = Solubility in various aqueous PEG media, by HPLC (Example 2); settings: aqueous with cosolvent or surfactant or cyclodextrin, kinetic from dmso stock, Average solubility, N=3
Method: Materials and methods. […] The following compounds were obtained from Fluka - Riedel deHaën: carbazol (Vetranal analytical standard), Polyethylene glycol 8000, Polyethylene glycol 20000, Polyethylene glycol 400. […] Solutions of PEG-8000 and PEG-20000 in water (30%, w/w) were prepared in 50 mL centrifuge tubes by weighing 15.0 g of the corresponding PEG and adding water up to 50.0 g. A solution containing PEG-8000 (10%, w/w) and PEG-400 (20%, w/w) was similarly prepared by mixing 5 g PEG-8000 with […], and adding water up to 50 g.
Results. […] Starting from DMSO stock solutions, dilute solutions with a nominal concentration of 200 µM were prepared by 50-fold dilution with one of three different aqueous PEG medium. After equilibration for 1 day at room temperature, these solutions were filtered through 0.45 µm cellulose filters (ProFill, 25 mm syringe filters, Alltech). Aliquots were placed in HPLC vials and submitted to analysis.

Row | SMILES | LogSw [1] | measured concentration after ten-fold dilution of the reconstituted PEG lyophilized samples ([2]; 3% PEG-8000, range over both tests and both compounds) [µM] | PEG solutions, freeze dried and reconstituted Test 1 [2] [µM] | PEG solutions, freeze dried and reconstituted Test 2 [2] [µM] | CPEG [2] [µM] | Cw [2] [µM] | PEG solutions, reconstituted and diluted 1:10 Test 1 [2] [µM] | PEG solutions, reconstituted and diluted 1:10 Test 2 [2] [µM] | solubility at 1 day ([3]; 20% PEG-400 + 10% PEG-8000, nominal 200 µM) [µM] | solubility at 1 day ([3]; 30% PEG-8000, nominal 200 µM) [µM] | solubility at 1 day ([3]; 30% PEG-20000, nominal 200 µM) [µM]
1 | Cc1ccc(S(N)(=O)=O)cc1 [Compound 2, p-Toluenesulphonamide] | -1.74 |  |  |  |  |  |  |  |  |  | 
2 | c1ccc2c(c1)[nH]c1ccccc12 [Compound 8, Carbazol] | -5.27 | 19.0 to 19.4 | 195 | 195 | 196 | 8.6 | 19.0 | 19.2 | 187 | 194 (≈ 32.4 µg/mL) | 188 (≈ 31.4 µg/mL)
3 | O=C(O)Cc1ccccc1 [Compound 1, Phenylacetic acid] | -0.89 |  | 181 | 187 | 198 | 200 | 17.7 | 17.8 |  |  | 
4 | CCOC(=O)c1ccc(O)cc1 [Compound 3, Ethyl-p-hydroxybenzoate] | -2.35 |  |  |  |  |  |  |  |  |  | 
5 | CC(=O)CC(c1ccccc1)c1c(O)c2ccccc2oc1=O (stereo not drawn) [Compound 6, Warfarin] | -4.26 |  | 199 | 199 | 198 | 155 | 20.2 | 20.4 |  |  | 
